Measurements published in the supplement of paper PMC10307832.

Columns and labels:
Test in all cases: relative viability (nuclei count vs DMSO), 5 days (fraction); higher = more cells survive
NCI-H1651 = tested on: NCI-H1651
How it was run: (§1)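 Values are medians from duplicate plates. Each reflects relative viability, defined as the nuclei count of treated wells over that of vehicle wells. Lung cancer cell lines in 1536-well plates were pin-tool dosed one day after seeding with one drug alone or with a fixed anchor-drug dose plus five library-drug doses (not always all listed) in √10 steps, then fixed, stained and imaged at 4× after 5 days.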

Calu-6 = tested on: Calu-6
How it was run: as §1

NCI-H650 = tested on: NCI-H650
How it was run: as §1

NCI-H1299 = tested on: NCI-H1299
How it was run: as §1

A549 = tested on: A549
How it was run: as §1

NCI-H838 = tested on: NCI-H838
How it was run: as §1

NCI-H520 = tested on: NCI-H520
How it was run: as §1

PC-3 [JPC-3] = tested on: PC-3 [JPC-3]
How it was run: as §1

NCI-H1703 = tested on: NCI-H1703
How it was run: as §1

EBC-1 = tested on: EBC-1
How it was run: as §1

IA-LM = tested on: IA-LM
How it was run: as §1

RERF-LC-KJ = tested on: RERF-LC-KJ
How it was run: as §1

NCI-H1944 = tested on: NCI-H1944
How it was run: as §1

Structure (SMILES): COc1cc2nccc(Oc3ccc(NC(=O)Nc4cc(C)on4)c(Cl)c3)c2cc1OC [Tivozanib] + C[C@]1(O)C[C@@H](c2nc(-c3ccc4ccc(-c5ccccc5)nc4c3)c3c(N)nccn32)C1 [Linsitinib] (partner 1 µM)
- relative viability (NCI-H1651; first compound 0.005 µM): 0.929
- relative viability (NCI-H1651; first compound 0.01581 µM): 0.988
- relative viability (NCI-H1651; first compound 0.05 µM): 0.87
- relative viability (NCI-H1651; first compound 0.1581 µM): 0.949
- relative viability (NCI-H1651; first compound 0.5 µM): 0.963
- relative viability (Calu-6; first compound 0.005 µM): 0.89
- relative viability (Calu-6; first compound 0.01581 µM): 0.941
- relative viability (Calu-6; first compound 0.05 µM): 0.894
- relative viability (Calu-6; first compound 0.1581 µM): 0.915
- relative viability (Calu-6; first compound 0.5 µM): 0.83
- relative viability (NCI-H650; first compound 0.005 µM): 0.671
- relative viability (NCI-H650; first compound 0.01581 µM): 0.992
- relative viability (NCI-H650; first compound 0.05 µM): 0.859
- relative viability (NCI-H650; first compound 0.1581 µM): 0.736
- relative viability (NCI-H650; first compound 0.5 µM): 0.542
- relative viability (NCI-H1299; first compound 0.005 µM): 0.956
- relative viability (NCI-H1299; first compound 0.01581 µM): 0.981
- relative viability (NCI-H1299; first compound 0.05 µM): 0.981
- relative viability (NCI-H1299; first compound 0.1581 µM): 0.998
- relative viability (NCI-H1299; first compound 0.5 µM): 0.841
- relative viability (A549; first compound 0.005 µM): 0.52
- relative viability (A549; first compound 0.01581 µM): 0.606
- relative viability (A549; first compound 0.05 µM): 0.625
- relative viability (A549; first compound 0.1581 µM): 0.635
- relative viability (A549; first compound 0.5 µM): 0.656
- relative viability (NCI-H838; first compound 0.005 µM): 0.963
- relative viability (NCI-H838; first compound 0.01581 µM): 1.04
- relative viability (NCI-H838; first compound 0.05 µM): 1.11
- relative viability (NCI-H838; first compound 0.5 µM): 0.942
- relative viability (NCI-H520; first compound 0.005 µM): 0.838
- relative viability (NCI-H520; first compound 0.01581 µM): 0.966
- relative viability (NCI-H520; first compound 0.05 µM): 0.883
- relative viability (NCI-H520; first compound 0.1581 µM): 0.935
- relative viability (NCI-H520; first compound 0.5 µM): 0.821
- relative viability (PC-3 [JPC-3]; first compound 0.005 µM): 0.903
- relative viability (PC-3 [JPC-3]; first compound 0.01581 µM): 0.921
- relative viability (PC-3 [JPC-3]; first compound 0.05 µM): 1
- relative viability (PC-3 [JPC-3]; first compound 0.1581 µM): 1.01
- relative viability (PC-3 [JPC-3]; first compound 0.5 µM): 0.915
- relative viability (NCI-H1703; first compound 0.005 µM): 0.402
- relative viability (NCI-H1703; first compound 0.01581 µM): 0.254
- relative viability (NCI-H1703; first compound 0.05 µM): 0.167
- relative viability (NCI-H1703; first compound 0.1581 µM): 0.158
- relative viability (NCI-H1703; first compound 0.5 µM): 0.283
- relative viability (EBC-1; first compound 0.005 µM): 0.86
- relative viability (EBC-1; first compound 0.01581 µM): 0.898
- relative viability (EBC-1; first compound 0.05 µM): 0.909
- relative viability (EBC-1; first compound 0.1581 µM): 0.762
- relative viability (EBC-1; first compound 0.5 µM): 0.887
- relative viability (IA-LM; first compound 0.005 µM): 0.526
- relative viability (IA-LM; first compound 0.01581 µM): 0.508
- relative viability (IA-LM; first compound 0.05 µM): 0.573
- relative viability (IA-LM; first compound 0.1581 µM): 0.467
- relative viability (IA-LM; first compound 0.5 µM): 0.511
- relative viability (RERF-LC-KJ; first compound 0.005 µM): 0.828
- relative viability (RERF-LC-KJ; first compound 0.01581 µM): 0.855
- relative viability (RERF-LC-KJ; first compound 0.05 µM): 0.901
- relative viability (RERF-LC-KJ; first compound 0.1581 µM): 0.92
- relative viability (RERF-LC-KJ; first compound 0.5 µM): 0.88
- relative viability (NCI-H1944; first compound 0.005 µM): 1.14
- relative viability (NCI-H1944; first compound 0.01581 µM): 1.2
- relative viability (NCI-H1944; first compound 0.05 µM): 1.29
- relative viability (NCI-H1944; first compound 0.1581 µM): 1.1
- relative viability (NCI-H1944; first compound 0.5 µM): 1.21

Structure (SMILES): COc1cc2nccc(Oc3ccc(NC(=O)Nc4cc(C)on4)c(Cl)c3)c2cc1OC [Tivozanib] + Cc1nc(NC(=O)N2CCC[C@H]2C(N)=O)sc1-c1ccnc(C(C)(C)C(F)(F)F)c1 [Alpelisib] (partner 2 µM)
- relative viability (NCI-H1651; first compound 0.005 µM): 0.985
- relative viability (NCI-H1651; first compound 0.01581 µM): 0.842
- relative viability (NCI-H1651; first compound 0.05 µM): 0.781
- relative viability (NCI-H1651; first compound 0.1581 µM): 0.879
- relative viability (NCI-H1651; first compound 0.5 µM): 0.889
- relative viability (Calu-6; first compound 0.005 µM): 0.993
- relative viability (Calu-6; first compound 0.01581 µM): 0.969
- relative viability (Calu-6; first compound 0.05 µM): 0.943
- relative viability (Calu-6; first compound 0.1581 µM): 0.863
- relative viability (Calu-6; first compound 0.5 µM): 0.874
- relative viability (NCI-H650; first compound 0.005 µM): 1.06
- relative viability (NCI-H650; first compound 0.01581 µM): 1.13
- relative viability (NCI-H650; first compound 0.05 µM): 1.1
- relative viability (NCI-H650; first compound 0.1581 µM): 1.02
- relative viability (NCI-H650; first compound 0.5 µM): 0.967
- relative viability (NCI-H1299; first compound 0.005 µM): 1.09
- relative viability (NCI-H1299; first compound 0.01581 µM): 1.11
- relative viability (NCI-H1299; first compound 0.05 µM): 1.08
- relative viability (NCI-H1299; first compound 0.1581 µM): 1.13
- relative viability (NCI-H1299; first compound 0.5 µM): 1.06
- relative viability (A549; first compound 0.005 µM): 0.715
- relative viability (A549; first compound 0.01581 µM): 0.754
- relative viability (A549; first compound 0.05 µM): 0.793
- relative viability (A549; first compound 0.1581 µM): 0.612
- relative viability (A549; first compound 0.5 µM): 0.774
- relative viability (NCI-H838; first compound 0.005 µM): 0.984
- relative viability (NCI-H838; first compound 0.01581 µM): 1.04
- relative viability (NCI-H838; first compound 0.05 µM): 1.04
- relative viability (NCI-H838; first compound 0.5 µM): 1.03
- relative viability (NCI-H520; first compound 0.005 µM): 0.773
- relative viability (NCI-H520; first compound 0.01581 µM): 0.847
- relative viability (NCI-H520; first compound 0.05 µM): 1.02
- relative viability (NCI-H520; first compound 0.1581 µM): 0.74
- relative viability (NCI-H520; first compound 0.5 µM): 0.714
- relative viability (PC-3 [JPC-3]; first compound 0.005 µM): 0.988
- relative viability (PC-3 [JPC-3]; first compound 0.01581 µM): 1.11
- relative viability (PC-3 [JPC-3]; first compound 0.05 µM): 1.15
- relative viability (PC-3 [JPC-3]; first compound 0.1581 µM): 0.957
- relative viability (PC-3 [JPC-3]; first compound 0.5 µM): 0.997
- relative viability (NCI-H1703; first compound 0.005 µM): 0.262
- relative viability (NCI-H1703; first compound 0.01581 µM): 0.179
- relative viability (NCI-H1703; first compound 0.05 µM): 0.201
- relative viability (NCI-H1703; first compound 0.1581 µM): 0.155
- relative viability (NCI-H1703; first compound 0.5 µM): 0.203
- relative viability (EBC-1; first compound 0.005 µM): 0.79
- relative viability (EBC-1; first compound 0.01581 µM): 0.924
- relative viability (EBC-1; first compound 0.05 µM): 0.811
- relative viability (EBC-1; first compound 0.1581 µM): 0.59
- relative viability (EBC-1; first compound 0.5 µM): 0.74
- relative viability (IA-LM; first compound 0.005 µM): 0.659
- relative viability (IA-LM; first compound 0.01581 µM): 0.623
- relative viability (IA-LM; first compound 0.05 µM): 0.718
- relative viability (IA-LM; first compound 0.1581 µM): 0.597
- relative viability (IA-LM; first compound 0.5 µM): 0.531
- relative viability (RERF-LC-KJ; first compound 0.005 µM): 0.729
- relative viability (RERF-LC-KJ; first compound 0.01581 µM): 0.757
- relative viability (RERF-LC-KJ; first compound 0.05 µM): 0.965
- relative viability (RERF-LC-KJ; first compound 0.1581 µM): 0.689
- relative viability (RERF-LC-KJ; first compound 0.5 µM): 0.834
- relative viability (NCI-H1944; first compound 0.005 µM): 0.889
- relative viability (NCI-H1944; first compound 0.01581 µM): 0.902
- relative viability (NCI-H1944; first compound 0.05 µM): 0.885
- relative viability (NCI-H1944; first compound 0.1581 µM): 0.733
- relative viability (NCI-H1944; first compound 0.5 µM): 0.912
